Assay results as given in patent publication US4348393A, “N-Aryl oxazolidinones, oxazolidinethiones, pyrrolidinones, pyrrolidines and thiazolidinones” (Delalande S.A., priority 1978, dated 1982).

What was measured:
[1] = tested on: ptosis observed one hour after reserpine; test: Test B: antagonism of reserpine-induced ptosis in mice; assay type: in vivo; conditions: Mus musculus, 1 h, po, antagonism of ptosis one hour after reserpine 2 mg/kg intravenous, read-out: Test B ED 50
Procedure: Test B: Antagonism with respect to the ptosis observed one hour after an intravenous injection (2 mg/kg) of reserpine given to mice, following the protocol described by C.

[2] = tested on: generalized trembling caused by dl-5-hydroxytryptophane; test: Test A: potentiation in mice of generalized trembling caused by dl-5-hydroxytryptophane; assay type: in vivo; conditions: Mus musculus, po, mice, potentiation of trembling by dl-5-hydroxytryptophane 200 mg/kg interperitoneal, read-out: Test A ED 50
Procedure: Test A: Potentiation in mice of generalized trembling caused by an interperitoneal injection (200 mg/kg) of dl-5-hydroxytryptophane, following the protocol described by C. GOURET and G. RAYNAUD in J. Pharmacol. (Paris), (1974), 5, 231.

Toxicity LD50 mouse = conditions: in vivo, po, read-out: Toxicity LD 50

Row | Structure (SMILES) | ED50 [1] [mg/kg] | ED50 [2] [mg/kg] | LD50 (Toxicity LD50 mouse) [mg/kg]
1 | COCC1CN(c2ccc(OCc3cccnc3)cc2)C(=S)O1 (stereo not drawn) [compound 213] | 2 | 3 | 1000
2 | COCC1CN(c2ccc(OCCC(C)C)cc2)C(=S)O1 (stereo not drawn) [compound 214] | 1.8 | 0.84 | 1000
3 | N#CCCCCOc1ccc(N2CC(CO)OC2=S)cc1 (stereo not drawn) [compound 215] | 10 | 6.2 | > 1000
4 | CCOCC1CN(c2ccc(OCc3cccc([N+](=O)[O-])c3)cc2)C(=S)O1 (stereo not drawn) [compound 216] | 3 | 5 | 1000
5 | COCC1CN(c2ccc(OCc3cc(C#N)cc([N+](=O)[O-])c3)cc2)C(=S)O1 (stereo not drawn) [compound 218] | 13.5 | 7.2 | > 1000
6 | COCC1CN(c2ccc(OCc3cccc([N+](=O)[O-])c3)cc2)C(=O)S1 (stereo not drawn) [compound 219, para (metanitro) benzyloxyphenyl-3 methoxymethyl-5 thiazolidinone-2] | 13.5 | 7 | > 1000
7 | OCC1CCN(c2ccc(OCc3ccccc3)cc2)C1 (stereo not drawn) [compound 220, N-parabenzyloxyphenyl hydroxymethyl-3 pyrrolidine] | 50 | 50 | > 1000
8 | COCC1CN(c2ccc(OCCCCCl)cc2)C(=O)O1 (stereo not drawn) [compound 234] | 4 | 0.6 | > 1000
